Results taken from patent US8518913B2, “Phosphorous derivatives as chemokine receptor modulators” (Allergan, Inc., priority 2010, dated 2013).
Read-outs that look alike come from different tables or passages of the source.

Target: T1, CCR2 receptor (Homo sapiens, UniProt P41597)
T1 construct: expressed in transfected cells
Assay: CCR2 calcium activity assay on FLIPR Tetra in HEK-Gqi5 cells stably expressing CCR2
Type: cell-based
Method: HEK-Gqi5 cells stably expressing CCR2 were cultured in (DMEM high glucose, 10% FBS, 1% PSA, 400 μg/ml geneticin and 50 μg/ml hygromycin. Appropriate positive control chemokines (MCP-1, MIP1A or RANTES) was used as the positive control agonist for screening compound-induced calcium activity assayed on the FLIPR^Tetra. The drug plates were prepared in 384-well microplates using the EP3 and the MultiPROBE robotic liquid handling systems. Compounds were synthesized and tested for CCR2 activity.

[1] = HEK-Gqi5 cells stably expressing CCR2, calcium activity, FLIPR Tetra
[2] = HEK-Gqi5 cells stably expressing CCR2, calcium activity, FLIPR Tetra, read-out: CCR2 IC50

T1 sequence (P41597 whole entry): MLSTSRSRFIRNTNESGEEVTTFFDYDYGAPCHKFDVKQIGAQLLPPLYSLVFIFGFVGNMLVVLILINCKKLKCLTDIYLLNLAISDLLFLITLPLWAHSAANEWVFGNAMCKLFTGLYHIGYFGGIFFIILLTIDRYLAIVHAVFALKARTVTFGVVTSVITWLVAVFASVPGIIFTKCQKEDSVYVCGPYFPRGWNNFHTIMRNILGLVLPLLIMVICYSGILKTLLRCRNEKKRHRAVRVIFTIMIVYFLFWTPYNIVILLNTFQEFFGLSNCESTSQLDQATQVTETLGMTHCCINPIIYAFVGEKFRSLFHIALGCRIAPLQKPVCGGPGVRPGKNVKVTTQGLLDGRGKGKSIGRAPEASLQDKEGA

SMILES	CCR2 % ANTAGONISM [1] [%]	IC50 [2] [nM]	IC50 [nM]
CP(=O)(c1ccc(Cl)cc1NS(=O)(=O)c1ccc(Cl)c(C(F)(F)F)c1)N1CCC(=O)CC1 (centres unmarked) [Compound 7, 4-Chloro-N-{5-chloro-2-[methyl(4-oxopiperidin-1-yl)phosphoryl]phenyl}-3-(trifluoromethyl)benzenesulfonamide]	87	25	
CCOP(=O)(c1ccc(Cl)cc1NS(=O)(=O)c1ccc(Cl)c(C(F)(F)F)c1)N1CCOCC1 (centres unmarked) [Compound 11, Ethyl [4-chloro-2-({[4-chloro-3-(trifluoromethyl)phenyl]sulfonyl}amino)phenyl]morpholin-4-ylphosphinate]	65	150	
CP(=O)(c1ccc(Cl)cc1NS(=O)(=O)c1ccc(Cl)c(C(F)(F)F)c1)N1CCOCC1 (centres unmarked) [Compound 6, 4-Chloro-N-{5-chloro-2-[methyl(morpholin-4-yl)phosphoryl]phenyl}-3-(trifluoromethyl)benzenesulfonamide]	93	15	
CCOP(C)(=O)c1ccc(Cl)cc1NS(=O)(=O)c1ccc(Cl)c(C(F)(F)F)c1 (centres unmarked) [Compound 1, Ethyl [4-chloro-2-({[4-chloro-3-(trifluoromethyl)phenyl]sulfonyl}amino)phenyl]methylphosphinate]	80		159
COP(=O)(c1ccc(Cl)cc1NS(=O)(=O)c1ccc(Cl)c(C(F)(F)F)c1)N1CCC(=O)CC1 (centres unmarked) [Compound 12, Methyl [4-chloro-2-({[4-chloro-3-(trifluoromethyl)phenyl]sulfonyl}amino)phenyl](4-oxopiperidin-1-yl)phosphinate]	95	124	

The next lines start with results.

CCR2 % ANTAGONISM [1] [%]	IC50 [2] [nM]	SMILES	IC50 [nM]
84	537	CCCCOP(=O)(c1ccc(Cl)cc1NS(=O)(=O)c1ccc(Cl)c(C(F)(F)F)c1)N1CCC(=O)CC1 (centres unmarked) [Compound 10, Butyl [4-chloro-2-({[4-chloro-3-(trifluoromethyl)phenyl]sulfonyl}amino)phenyl](4-oxopiperidin-1-yl)phosphinate]	
92	125	CP(C)(=O)c1ccc(Cl)cc1NS(=O)(=O)c1ccc(Cl)c(C(F)(F)F)c1 [Compound 15, 4-Chloro-N-[5-chloro-2-(dimethylphosphoryl)phenyl]-3-(trifluoromethyl)benzenesulfonamide]	
